Assays:
rat red blood cells = assay: Hemolysis study in rat blood; format: cell-based; conditions: 60 min, 37° C.; for % RBC lysis (hemolytic potential): test articles 25, 50, 100 μM, amphotericin B 1, 10, 30, 100 μM
Method: (§1) FIG. 6A. […] Compound I-19 in rat blood. Red blood cells were isolated from whole blood and resuspended in PBS. […] (final concentrations 25, 50, and 100 μM) and the mixtures were incubated at 37° C. for 60 min. After the incubation, the samples were centrifuged and the absorbance of 100 μL of supernatant was read at 410 nm. % RBC lysis is expressed relative to 100% lysis control. Values represent mean+SEM of n=3 separate experiments.
as §1, with “6B.” for “6A.”, “μl” for “μL”
FIG. 6C. Hemolytic Potential of Amphotericin B in rat blood (positive assay control). Red blood cells were isolated from whole blood and resuspended in PBS. 190 μL of diluted RBC suspension and 10 μL of amphotericin B solutions were mixed at 0 min. (final concentrations 1, 10, 30, and 100 μM) and the mixtures were incubated at 37° C. for 60 min. After the incubation, the samples were centrifuged and the absorbance of 100 μL of supernatant was read at 410 nm. % RBC lysis is expressed relative to 100% lysis control. Values represent mean+SEM of n=3 separate experiments.
To a clear 96-well V-bottom polystyrene plate, the test articles (10 μL) and the diluted RBCs (190 μL) from human or rat blood were mixed for final concentrations of 25, 50, and 100 μM. The reaction mixture was incubated at 37° C. for 60 min. Following the exposure period, the plates were centrifuged. After centrifugation, 70 μL of supernatant (without disturbing the pellet) was transferred to a clean and clear polystyrene flat bottomed 96-well plate and the absorbance of the sample at a single wavelength was measured using a BioTech Synergy H1 Plate Reader at a wavelength of 410 nm. The positive control for this assay was amphotericin B test at concentrations of 1, 10, 30, and 100 μM.

in vitro = conditions: for % Remaining / Aa/Ai Mean (N = 2) / T1/2: 2.0 μM; for T1/2: 60 min incubation
MDR1 = MDR1 (Homo sapiens, UniProt P08183); assay: Vesicular transport inhibition assay, MDR1 (N-methyl quinidine)
Method: Vesicular transport assays were performed with inside-out membrane vesicles prepared from cells overexpressing human ABC (efflux) transporters. The transporters were expressed by SOLVO Biotechnology in mammalian (HEK293) cells. The mammalian cells were stably transfected with the ABC transporter of interest. The assays were conducted according to the actual SOLVO VT assay protocols (PR-ASY-VT-General Protocol for Vesicular Transport Inhibition Assays).
The membrane vesicle suspension was mixed with the ice-cold transport buffer, then the probe substrate solution was added. […] (for BCRP and MDR1). […] Reactions were quenched by the addition of 200 μL of ice-cold washing buffer and immediate filtration via glass fiber filters mounted to a 96-well plate (filter plate). The filters were washed (5×200 μL of ice-cold washing buffer), dried and the amount of substrate inside the filtered vesicles was determined by liquid scintillation counting.
Incubation with AMP provided background activity values for all data points.

MATE2-K = MATE2-K (Homo sapiens, UniProt Q86VL8); assay: Uptake transporter inhibition assay, MATE2-K (metformin)
[1] = 0.14 μM nominal, follow-up assay
[2] = 1.24 μM nominal, follow-up assay
[3] = 11.11 μM nominal, follow-up assay
[4] = 33.33 μM nominal, follow-up assay
[5] = 100.00 μM nominal, follow-up assay
[6] = 0.14 μM nominal, 0.08 μM NSB corrected, follow-up assay
[7] = 1.24 μM nominal, 0.79 μM NSB corrected, follow-up assay
[8] = 10.00 μM nominal, 6.50 μM NSB corrected
[9] = 11.11 μM nominal, 6.11 μM NSB corrected, follow-up assay
[10] = 33.33 μM nominal, 20.33 μM NSB corrected, follow-up assay
[11] = 100.00 μM nominal, 67.00 μM NSB corrected
[12] = 100.00 μM nominal, […] NSB corrected, follow-up assay
[13] = […] nominal, 2.37 μM NSB corrected, follow-up assay

Sequence of MDR1 (P08183 whole entry): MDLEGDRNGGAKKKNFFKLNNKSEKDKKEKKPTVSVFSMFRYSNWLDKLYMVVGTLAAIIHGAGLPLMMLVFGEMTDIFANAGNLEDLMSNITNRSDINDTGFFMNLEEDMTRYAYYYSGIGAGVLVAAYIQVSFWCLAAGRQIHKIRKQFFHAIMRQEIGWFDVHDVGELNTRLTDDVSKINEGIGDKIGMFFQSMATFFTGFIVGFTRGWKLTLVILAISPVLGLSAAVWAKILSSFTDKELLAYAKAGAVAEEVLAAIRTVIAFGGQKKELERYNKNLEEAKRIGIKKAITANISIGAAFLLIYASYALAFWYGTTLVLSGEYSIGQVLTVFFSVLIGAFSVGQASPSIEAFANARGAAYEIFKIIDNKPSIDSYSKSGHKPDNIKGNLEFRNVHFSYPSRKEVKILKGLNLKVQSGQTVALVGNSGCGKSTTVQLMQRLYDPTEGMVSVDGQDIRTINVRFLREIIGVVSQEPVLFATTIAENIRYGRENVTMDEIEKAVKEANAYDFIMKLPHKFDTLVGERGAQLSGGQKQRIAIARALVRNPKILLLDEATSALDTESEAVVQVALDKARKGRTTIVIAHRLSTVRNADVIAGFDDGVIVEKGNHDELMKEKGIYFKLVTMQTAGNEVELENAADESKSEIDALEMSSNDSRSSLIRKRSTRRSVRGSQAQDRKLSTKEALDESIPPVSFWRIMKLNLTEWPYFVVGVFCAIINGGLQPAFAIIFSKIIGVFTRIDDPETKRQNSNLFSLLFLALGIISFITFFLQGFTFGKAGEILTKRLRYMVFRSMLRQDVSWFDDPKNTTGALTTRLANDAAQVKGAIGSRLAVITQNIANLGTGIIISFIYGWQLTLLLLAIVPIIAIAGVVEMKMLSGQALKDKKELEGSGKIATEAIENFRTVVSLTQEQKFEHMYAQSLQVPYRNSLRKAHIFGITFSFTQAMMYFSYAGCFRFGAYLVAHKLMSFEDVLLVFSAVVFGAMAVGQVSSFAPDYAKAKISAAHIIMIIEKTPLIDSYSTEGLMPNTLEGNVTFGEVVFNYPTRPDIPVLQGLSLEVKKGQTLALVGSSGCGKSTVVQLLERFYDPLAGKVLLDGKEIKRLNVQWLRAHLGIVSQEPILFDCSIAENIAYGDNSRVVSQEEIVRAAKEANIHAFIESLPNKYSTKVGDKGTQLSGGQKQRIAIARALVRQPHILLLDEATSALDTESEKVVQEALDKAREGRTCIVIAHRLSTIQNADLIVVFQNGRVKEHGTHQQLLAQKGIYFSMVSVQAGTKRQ
Sequence of MATE2-K (Q86VL8 1-566 isoform Q86VL8-3): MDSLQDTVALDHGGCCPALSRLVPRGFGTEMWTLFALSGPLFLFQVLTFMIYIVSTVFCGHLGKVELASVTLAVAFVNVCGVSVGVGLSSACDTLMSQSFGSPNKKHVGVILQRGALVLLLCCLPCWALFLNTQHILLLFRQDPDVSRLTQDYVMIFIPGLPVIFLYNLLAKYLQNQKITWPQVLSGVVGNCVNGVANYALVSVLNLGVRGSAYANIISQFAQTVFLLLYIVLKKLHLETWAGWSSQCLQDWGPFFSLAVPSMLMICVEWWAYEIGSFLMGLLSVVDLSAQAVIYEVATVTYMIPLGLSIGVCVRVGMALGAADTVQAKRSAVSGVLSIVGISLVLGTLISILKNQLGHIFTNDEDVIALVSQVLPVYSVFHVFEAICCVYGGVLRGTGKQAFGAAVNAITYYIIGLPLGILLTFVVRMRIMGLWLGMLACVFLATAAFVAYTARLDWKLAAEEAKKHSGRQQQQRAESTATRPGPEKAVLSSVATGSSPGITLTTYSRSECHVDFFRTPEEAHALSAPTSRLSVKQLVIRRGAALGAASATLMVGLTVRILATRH

## COCCOC1(c2ccc(Cl)cc2)c2ccccc2C2=NCCN21 (centres unmarked) [Compound I-4]
Rat red blood cells
  EC50 (% RBC lysis): outside the concentration range tested
  % RBC lysis (hemolytic potential): no detectable hemolysis
In vitro; 0 min
  Compound A formed (Aa/Ai): 0.57
  % Remaining: 100%
  Aa/Ai Mean (N = 2): 3.25
In vitro; 5 min
  % Remaining: 95.0%
  Aa/Ai Mean (N = 2): 3.08
  Compound A formed (Aa/Ai): 0.66
In vitro; 15 min
  % Remaining: 99.6%
  Aa/Ai Mean (N = 2): 3.23
  Compound A formed (Aa/Ai): 0.58
In vitro; 30 min
  % Remaining: 90.8%
  Aa/Ai Mean (N = 2): 2.95
  Compound A formed (Aa/Ai): 0.52
In vitro; 60 min
  % Remaining: 83.6%
  Aa/Ai Mean (N = 2): 2.72
  Compound A formed (Aa/Ai): 0.42
In vitro
  T1/2: >3.12 h

## Clc1ccc(C2(OCC3OCCO3)c3ccccc3C3=NCCN32)cc1 (centres unmarked) [Compound I-19]
Rat red blood cells
  EC50 (% RBC lysis): outside the concentration range tested
  % RBC lysis (hemolytic potential): no detectable hemolysis
In vitro; 0 min
  Compound A formed (Aa/Ai): 0.60
  % Remaining: 100%
  Aa/Ai Mean (N = 2): 1.62
In vitro; 5 min
  % Remaining: 99.1%
  Aa/Ai Mean (N = 2): 1.61
  Compound A formed (Aa/Ai): 0.59
In vitro; 15 min
  % Remaining: 98.2%
  Aa/Ai Mean (N = 2): 1.59
  Compound A formed (Aa/Ai): 0.57
In vitro; 30 min
  % Remaining: 92.8%
  Aa/Ai Mean (N = 2): 1.50
  Compound A formed (Aa/Ai): 0.52
In vitro; 60 min
  % Remaining: 79.6%
  Aa/Ai Mean (N = 2): 1.29
  Compound A formed (Aa/Ai): 0.47
In vitro
  T1/2: 2.97 h
MDR1; [1]
  ATP-dependent transport: 3,812.00 ± 42.21 cpm
  Relative ATP-dependent transport: 101.02 ± 3.23 % of control
  Relative inhibition: −1%
MDR1; [2]
  ATP-dependent transport: 3,744.33 ± 56.10 cpm
  Relative ATP-dependent transport: 99.23 ± 3.33 % of control
  Relative inhibition: 1%
MDR1; 10.00 μM nominal
  ATP-dependent transport: 1,845.67 ± 148.09 cpm
  Relative ATP-dependent transport: 51.19 ± 4.18 % of control
  Relative inhibition: 49%
MDR1; [3]
  ATP-dependent transport: 2,730.67 ± 83.62 cpm
  Relative ATP-dependent transport: 72.36 ± 3.10 % of control
  Relative inhibition: 28%
MDR1; [4]
  ATP-dependent transport: 1,363.00 ± 46.72 cpm
  Relative ATP-dependent transport: 36.12 ± 1.64 % of control
  Relative inhibition: 64%
MDR1; 100.00 μM nominal
  ATP-dependent transport: 2.84 ± 21.41 cpm
  Relative ATP-dependent transport: 7.89 ± 0.61 % of control
  Relative inhibition: 92%
MDR1; [5]
  ATP-dependent transport: 407.00 ± 29.39 cpm
  Relative ATP-dependent transport: 10.79 ± 0.84 % of control
  Relative inhibition: 89%
MDR1; 2-concentration assay, up to 100 μM (Compound A up to 50 μM)
  maximum inhibition of MDR1-mediated NMQ accumulation: 92%
MDR1; MDR1, inside-out membrane vesicles, NMQ (1 μM), NIO: No inhibition observed
  Maximum % inhibition: 89%
MDR1; follow-up assay
  maximum inhibition of MDR1-mediated NMQ accumulation: 89%
MDR1; follow-up assay, bottom constrained to 0
  IC50: 21 µM
MATE2-K; [6]
  Relative inhibition: 5%
  Relative transporter specific accumulation: 95.22 ± 8.50 % of control
  Transporter specific accumulation: 99.67 ± 6.15 cpm
MATE2-K; [7]
  Relative inhibition: 0%
  Relative transporter specific accumulation: 100.32 ± 8.62 % of control
  Transporter specific accumulation: 105.00 ± 5.96 cpm
MATE2-K; [8]
  Relative inhibition: 14%
  Relative transporter specific accumulation: 85.87 ± 5.57 % of control
  Transporter specific accumulation: 154.00 ± 7.39 cpm
MATE2-K; [9]
  Relative inhibition: 15%
  Relative transporter specific accumulation: 84.71 ± 5.61 % of control
  Transporter specific accumulation: 88.67 ± 1.33 cpm
MATE2-K; [10]
  Relative inhibition: 44%
  Relative transporter specific accumulation: 56.05 ± 3.67 % of control
  Transporter specific accumulation: 58.67 ± 0.67 cpm
MATE2-K; [11]
  Relative inhibition: 93%
  Relative transporter specific accumulation: 7.06 ± 5.01 % of control
  Transporter specific accumulation: 12.67 ± 8.97 cpm
MATE2-K; [12]
  Relative inhibition: 86%
  Relative transporter specific accumulation: 14.01 ± 1.15 % of control
  Transporter specific accumulation: 14.67 ± 0.75 cpm
MATE2-K; 2-concentration assay, Compound I-19 100 μM, Compound A 30 μM, Compound B 80 μM
  maximum inhibition of MATE2-K-mediated metformin accumulation: 93%
MATE2-K; MATE2-K, HEK293 cells, metformin (10 μM), NIO: no inhibition observed
  Maximum % inhibition: 86%
MATE2-K; [13]
  Relative inhibition: 1%
  Relative transporter specific accumulation: 99.36 ± 6.66 % of control
  Transporter specific accumulation: 104.00 ± 1.89 cpm
MATE2-K; follow-up assay
  maximum inhibition of MATE2-K-mediated metformin accumulation: 86%
MATE2-K; follow-up assay, NSB-corrected concentrations for Compound I-19
  IC50: 36.6 µM

Reference: patent US20250108038A1 (priority 2023, published 2025)
